Molecules are shown by their SMILES. A value given as a limit tells only on which side of the number the result lay.

Usually melting point stands for the temperature, or range, at which the solid turns liquid. For the molecule `CCCCc1nc2c(N)nc3ccccc3c2n1CCNC(=O)CCCCC1SCC2NC(=O)NC21` (stereo unspecified), the melting point was in the range of 124 to 126 °C.
As for `CCN(CC)c1ccc(C(C)=O)cc1S(N)(=O)=O`, the figure is 103 to 105 °C; as for `O=S(=O)(c1ccc(-n2cccn2)cc1)N1CCC(CNCC(O)COc2ccc(O)cc2)CC1` (stereo unspecified), 169 to 171 °C.
Next, `COc1ccc(C)cc1NC(=O)Nc1ccc(C2=CCN(C(=O)Nc3ccc(OCC(O)CO)cc3Cl)CC2)cc1` (stereo unspecified): 125 to 128 °C; `Cn1c(C(N)=O)c(-c2ccc(NC(=O)Nc3cc(C(F)(F)F)ccc3F)cc2)c2ccccc21`: greater than 260 °C; `O=C(NC[C@@H]1CN2C(=O)C[C@H]2O1)c1cc(F)c(F)cc1F` (racemic): 76.5 to 78.1 °C.
Next, `COC(=O)CS(=O)(=O)c1ccccc1C(=O)OC`: 102 to 103 °C; `COc1ccc(COCc2nnc3n2-c2ccc(Cl)cc2C(c2ccccc2)=NC3)cc1`: 157 to 159 °C.
On to `O=[N+]([O-])C1=C2N(Cc3ccc(Cl)nc3)CCN2C2CCC1O2` (stereo unspecified), for which the melting point is 149 to 150 °C.
As for `COc1ccc(-c2ccc(-c3nc(N)nc(N)n3)cc2)cc1`, the figure is greater than 260 °C.
`COc1cc(CCC(=O)O)ccc1OCCCc1cn(-c2ccc(C(F)(F)F)cn2)nc1C(C)C` came in with a melting point of 118 to 119 °C.
Next, `CCN(CC)C(=O)Cn1c(-c2ccc(C(F)(F)F)cc2)nc2cccnc21`: 140 to 142 °C; `Nc1cccc(-c2ccc(CCN3CCN(C(=O)c4ccccc4)CC3)cc2)n1`: 125 to 127 °C.
As for `O=C(N[C@@H](CO)C(=O)NCCCOC1CCCCC1)c1ccc(C(=O)c2cccnc2)cc1`, the figure is 57 to 62 °C; as for `CC(C)N(CCC(C(N)=O)(c1ccccc1)C1CCCCN1)C(C)C` (stereo unspecified), 107 to 108 °C.
As for `COC(=O)C1Cc2cncn2C(=O)N1` (stereo unspecified), the figure is 159 to 164 °C.
`CC(=O)c1ccc2c(c1)C(N1CCCC1=O)=CC(C)(C)O2` yielded a melting point of 106 to 108 °C.
Next, `CN(C)c1ccc2nc(N)c(C#N)c(Cl)c2c1`: 285 °C.
Next, `CCCn1c(=O)c2[nH]c(C3CCCC3)nc2n(CCc2ccc(NC(=O)C(C)C)cc2)c1=O`: greater than 270 °C.
Next, `Cc1cccc(C)c1C(=O)Oc1cc([N+](=O)[O-])cc([N+](=O)[O-])c1O`: 163 to 165 °C; `Cc1ccccc1-n1c(C=Cc2ccccc2F)nc2ccsc2c1=O`: 220 to 221 °C.
With `Cc1ccc(S(=O)(=O)N(C)c2cc(C)cc([N+](=O)[O-])c2N)cc1`, the melting point came out at 208 °C.
Next, `CC(C)OC(=O)Nc1ccc(C2=NNC(=O)CC2C)cc1` (stereo unspecified): 236 to 237 °C.
For the molecule `CCON=C(CC)C1=C(O)CC(c2cccc3sccc23)CC1=O` (stereo unspecified), the melting point was 76 °C.
As for `CCNc1nc(C=O)cs1`, the figure is 84 to 85 °C; as for `CC(=O)c1cccc(-c2cc3c(=O)n(NS(C)(=O)=O)c(=O)[nH]c3cc2C(F)(F)F)c1`, 220 to 222 °C.
Molecule `OCCCNc1nc(-c2ccc(Cl)c(Cl)c2)nc2ccccc12` yielded a melting point of 164 to 166 °C.
Next, `CC(O)c1cn(C(c2ccccc2)(c2ccccc2)c2ccccc2)cn1` (stereo unspecified): 156 to 157 °C.
Next, `COC(=O)c1cnccc1C(=O)c1ccc(-n2ccnc2)cc1`: 135 to 137 °C; `Cc1ccccc1CNc1c2c(nc3ccccc13)CCCC2O` (stereo unspecified): 167 to 169 °C.
As for `Cc1ccc2c(NC(=NC#N)NC(NC(=O)Cc3ccc(Cl)cc3)C(C)(C)C)cccc2n1` (stereo unspecified), the figure is 198 to 199 °C; as for `CCOCn1cc(-c2ccnc(N)n2)c2c(OC)cc(Br)nc21`, greater than 210 °C.
`CC(C)(C)OC(=O)[C@H]1C[C@H](S(=O)(=O)c2ccccc2)[C@@H](c2ccccc2)N1C(=O)CNC(=O)Nc1cccc(C(=O)O)c1` (racemic) had a melting point of 213 °C.
As for `Cc1c2[nH]c(C(=O)O)cc(=O)c2cc2c(=O)cc(C(=O)O)[nH]c12`, the figure is greater than 310 °C; as for `CCN(Cc1ccccc1)C(=O)Cc1c(-c2ccc(C)cc2)nc2cc(C)ccn12`, 220 to 222 °C; as for `CC(=O)Oc1cccc2c(-c3cccs3)c3cccc(OC(C)=O)c3c(OC(C)=O)c12`, 260 °C.
As for `O=S1(=O)N2CN3CN1CP(C3)C2`, the figure is 274 to 275 °C; as for `CC(C)(C)OC(=O)N1CCCC1C(=O)NCCC(N)=O` (stereo unspecified), 175 °C.
The molecule `O=[N+]([O-])c1cc(I)ccc1Nc1cccc(-c2ccccn2)c1` gave a melting point of 195 to 196 °C.
Next, `CC1(C)CCC(C)(C)c2cc(-c3cc(-c4ccc(C(=O)O)cc4)ccc3OCCCCN)ccc21`: 250 °C; `COc1ccc(C(=O)Nc2ccc(F)cc2)cc1NC(=S)Nc1cccc(C(=O)O)c1`: 218 to 220 °C.
`OCC=Cc1ccc(Br)cc1F` yielded a melting point of 38 to 40 °C.
As for `O=c1n(CC(F)(F)F)c2ccccc2n1C1CCN(CCCCN2Cc3cc(Cl)ccc3S2(=O)=O)CC1`, the figure is 237 to 239 °C; as for `Cc1c(NC(=O)c2cccc(OCc3ccccc3)c2)ccc2cc(CN3CCCC3)cnc12`, 148 to 149 °C.
The molecule `CSc1cc(C(F)(F)F)ccc1C(=O)CC(=O)C1CC1` registered a melting point of 64 °C.
As for `Nc1cc(-n2cc(C(=O)O)c(=O)c3cc(F)c(F)c(Cl)c32)cnc1Cl`, the figure is 277 to 281 °C; as for `CN(CCCCNC(=O)NCCCOc1cccc(CN2CCCCC2)c1)CCN(Cc1ccc(F)cc1)c1ccccn1`, 69 °C.
As for `CN1C(=O)c2ccc(-c3ccc(Cl)cc3)cc2C1=O`, the figure is 131 to 132 °C.
As for `O=[N+]([O-])c1ccc(N2CC(O)C2)c(F)c1`, the figure is 130 to 132 °C; as for `CC(=O)OC1CSC(Oc2ccc(-c3ccnc(F)c3)nc2Cl)C(OC(C)=O)C1OC(C)=O` (stereo unspecified), 226 °C.
Molecule `Cc1ccc2c(c1)CCC1=C2CCC(=O)N1C` yielded a melting point of 122 °C.
Next, `CCCc1nn(-c2ccc(C(F)(F)F)cn2)cc1CCCCOc1cc(CCC(=O)O)n(-c2ccccc2)n1`: 123 to 124 °C.
As for `N#CCSc1nc(NCc2ccc3c(c2)OCO3)cc(-c2ccccc2)n1`, the figure is 140 to 142 °C; as for `CCCCn1nc(C)c(CC(=O)O)c1C`, 97 to 98 °C; as for `COc1ccnc(CCc2nc3cc(-c4ccc(OC)c(OC)c4)cnc3[nH]2)c1`, 185 to 186 °C.
As for `CC1(O)CCN(Cc2ccc(C#CC(=O)Nc3ccc(-c4ccc(Cl)cc4)cc3)cc2)CC1`, the figure is 192 to 193 °C; as for `O=C(c1cnc2ccccc2c1)N1CCC(c2ccccc2)=N1`, 107 to 112 °C.
`CS(=O)(=O)c1ccc(C(CC2CCCCC2)C(=O)O)cc1` (stereo unspecified): the melting point lay within 139 to 143 °C.
Next, `CC(C)Oc1nsc(NC(=O)C(C)C)c1C#N`: 224 °C; `CC(=O)CCCCCC(=O)N[C@@H](C)C(=O)N[C@H](CCC(=O)OCc1ccccc1)C(N)=O`: 162 °C; `Fc1ccc2sc(COc3cccc(CBr)c3)nc2c1`: 99 to 100 °C.
As for `CC(C)(C)NC(=O)Nc1nc2nc(N)ncc2cc1-c1c(Cl)cccc1Cl`, the figure is 335 °C; as for `COc1cnc(OC)n2nc(N)nc12`, 185 to 186 °C; as for `CCN(CC)CCNC(=O)c1cccc2c(=O)c3c(I)cccc3[nH]c12`, 144 to 146 °C.
`CC(C)c1c2n(c(=O)c3ccccc13)CCCS2`: the melting point lay in the range of 123 to 124 °C.
As for `CCc1cc(NC(=O)c2nnn(Cc3ccccc3)n2)c(O)c(C(C)=O)c1`, the figure is 159 to 161 °C; as for `CCCn1c(=O)c2[nH]c(-c3ccc4c(c3)OCCO4)nc2n(Cc2ccccc2)c1=O`, 290 °C; as for `Clc1ccc2nc(CN3CCN(c4ccccc4Cl)CC3)cn2c1`, 123 to 124 °C.
In the case of `Cc1noc(NS(=O)(=O)c2ccc(-c3ccccc3)cc2)c1Br`, the melting point was in the range of 133 to 135 °C.
Next, `N#Cc1ccc(-c2cc3ccccc3[nH]c2=S)cc1`: 284 to 289 °C.
Molecule `O=C(O)Cc1cccc2c(=O)cc(-c3c(F)cccc3F)oc12` yielded a melting point of 178 to 180 °C.
As for `CC(C)P1(=O)c2ccccc2CN1C(C)(C)C` (stereo unspecified), the figure is 67 to 70 °C; as for `O=S1(=O)c2cccc3cccc(c23)N1CCN1CC=C(Cc2c[nH]c3ccc(F)cc23)CC1`, 128 °C.
Next, `CC(C)Cc1cc(-c2cccc(C=O)c2)c(S(=O)(=O)NC(C)(C)C)s1`: 96 to 98 °C; `CC(C)c1ccc(-c2nccc(-c3ccc(C(=O)O)cc3)n2)cc1`: 262 to 264 °C; `CCOC(=O)c1cnc2ccc(Cl)nn2c1=O`: 149 to 152 °C.
For the molecule `O=C(O)CCCC#CCc1c(-c2ccccc2)nc(-c2ccccc2)n1-c1ccccc1`, the melting point lay within 144 to 145 °C.
Next, `O=C(O)C1=Cc2cc(-c3ccc4c(c3)OCO4)ccc2SCC1`: 227 to 229 °C; `CCC(O)C(O)c1ccc(OCc2ccc3ccccc3c2)c(OC)c1` (stereo unspecified): 120 °C.
Next, `O=C(CC12CC3CC(CC(C3)C1)C2)Nc1cccc2[nH]ccc12`: 211 to 213 °C; `O=C(O)CCC(=O)N(CCCOc1ccc(C(=O)O)cc1)c1ccc(Cl)cc1`: 155 to 158 °C.
Next, `CC(=O)Nc1ccc(S(=O)(=O)Cc2cccc(OC(C)=O)c2)c2cccnc12`: 179 to 182 °C; `CC(Sc1nc(N)cc(Cl)n1)c1nccc2ccccc12` (stereo unspecified): 179 to 180 °C.
Molecule `COc1ccc(C2C=C3CCN(Cc4ccccc4)CC3C(CO)C2CO)cc1` (stereo unspecified) showed a melting point of 145 to 147 °C.
Next, `CC(=O)N1CCC2(CC1)C(=O)N(CC(=O)Nc1c(C(C)C)cccc1C(C)C)C(=O)N2c1ccc(C)cc1`: 136 to 138 °C; `O=C(Nc1ccccc1S(=O)(=O)c1ccccc1)N[C@@H](Cc1ccc(NC(=O)c2c(Cl)cccc2Cl)cc1)C(=O)O`: 227 °C.

(Values after a melting point compilation (Tetko et al.; mined from patent text by program, amines drawn as free bases though some values may be those of a salt).)
